From the Kinase Knowledgebase extract (Sharma et al. 2016) come the findings set out here.

Usually IC50 stands for the concentration at which inhibition is half-maximal. A higher IC50 goes with weaker potency in that assay.

Some results are limits rather than exact numbers.

The target of this test is EGFR (UniProt P00533). To be noted: her-14.
EGFR, sequence (P00533 whole entry, looked up): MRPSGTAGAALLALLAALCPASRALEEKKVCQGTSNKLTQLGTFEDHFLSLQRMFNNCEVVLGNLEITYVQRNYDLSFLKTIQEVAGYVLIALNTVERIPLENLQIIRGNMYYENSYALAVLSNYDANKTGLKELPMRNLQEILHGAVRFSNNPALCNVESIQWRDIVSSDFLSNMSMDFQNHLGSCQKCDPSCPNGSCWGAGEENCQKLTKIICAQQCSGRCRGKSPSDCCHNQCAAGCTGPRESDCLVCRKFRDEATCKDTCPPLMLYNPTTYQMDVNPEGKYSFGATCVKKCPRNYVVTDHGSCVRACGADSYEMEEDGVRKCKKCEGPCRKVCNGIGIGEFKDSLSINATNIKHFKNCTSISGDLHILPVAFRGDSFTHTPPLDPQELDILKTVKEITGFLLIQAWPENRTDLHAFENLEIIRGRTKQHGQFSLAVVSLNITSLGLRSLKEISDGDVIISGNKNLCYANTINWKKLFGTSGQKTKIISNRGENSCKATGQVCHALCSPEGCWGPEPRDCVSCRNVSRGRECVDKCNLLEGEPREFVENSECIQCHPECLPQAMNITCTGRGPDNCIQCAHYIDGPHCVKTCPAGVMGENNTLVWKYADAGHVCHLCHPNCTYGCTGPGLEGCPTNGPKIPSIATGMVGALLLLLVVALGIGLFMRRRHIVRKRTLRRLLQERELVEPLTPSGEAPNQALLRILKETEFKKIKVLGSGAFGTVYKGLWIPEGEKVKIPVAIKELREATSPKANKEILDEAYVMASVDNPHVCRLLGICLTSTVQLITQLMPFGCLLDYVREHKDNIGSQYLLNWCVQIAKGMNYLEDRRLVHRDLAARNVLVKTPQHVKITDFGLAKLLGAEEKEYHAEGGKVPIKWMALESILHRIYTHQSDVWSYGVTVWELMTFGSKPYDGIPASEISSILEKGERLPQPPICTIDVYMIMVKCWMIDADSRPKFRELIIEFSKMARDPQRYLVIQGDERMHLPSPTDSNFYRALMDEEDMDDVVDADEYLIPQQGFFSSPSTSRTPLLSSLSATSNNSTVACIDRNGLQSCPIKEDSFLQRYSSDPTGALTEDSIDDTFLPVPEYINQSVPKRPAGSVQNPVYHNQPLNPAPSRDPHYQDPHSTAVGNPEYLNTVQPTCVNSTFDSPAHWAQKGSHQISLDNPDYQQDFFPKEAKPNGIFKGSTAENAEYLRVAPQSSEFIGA
Compound `N#C/C(=C\c1ccc(O)c(O)c1)C(=O)NCCCCCNC(=O)/C(C#N)=C/c1ccc(O)c(O)c1` came in with an IC50 of 9 µM.
Under `N#C/C(=C\c1ccc(O)c(O)c1)C(=O)NCC1CCCC(CNC(=O)/C(C#N)=C/c2ccc(O)c(O)c2)C1` (centres undefined) stands 12.5 µM; under `N#C/C(=C\c1ccc(O)c(O)c1)C(=O)NCN1CCN(C(=O)/C(C#N)=C/c2ccc(O)c(O)c2)CC1`, 5.8 µM; under `N#C/C(=C\c1ccc(O)c(O)c1)C(=O)NCCCCNC(=O)/C(C#N)=C/c1ccc(O)c(O)c1`, 5 µM.
For `N#C/C(=C\c1ccc(O)c(O)c1)S(=O)(=O)/C(C#N)=C/c1ccc(O)c(O)c1`, the IC50 came out at 2 µM.
Compound `N#C/C(=C\c1ccc(O)c(O)c1)C(=O)NCCN1CCN(C(=O)/C(C#N)=C/c2ccc(O)c(O)c2)CC1` displayed an IC50 of 6.2 µM.
Under `N#C/C(=C\c1ccc(O)c(O)c1)C(=O)NC1CCC(CC2CCC(NC(=O)/C(C#N)=C/c3ccc(O)c(O)c3)CC2)CC1` (centres undefined) stands 20.3 µM; under `N#C/C(=C\c1ccc(O)c(O)c1)C(=O)NCCCN1CCN(CCCNC(=O)/C(C#N)=C/c2ccc(O)c(O)c2)CC1`, 7 µM; under `N#C/C(=C\c1cc(O)c(O)c([N+](=O)[O-])c1)C(=O)NCCCNC(=O)/C(C#N)=C/c1cc(O)c(O)c([N+](=O)[O-])c1`, 35 µM.
For `N#C/C(=C\c1ccc(O)c(O)c1)C(=O)NCCCCCCNC(=O)/C(C#N)=C/c1ccc(O)c(O)c1`, the IC50 was found to be 5 µM.
Take `N#C/C(=C\c1ccc(O)c(O)c1)C(=O)N1CCN(C(=O)/C(C#N)=C/c2ccc(O)c(O)c2)CC1`: the IC50 is 10 µM.
The figure for `COc1cc(/C=C(\C#N)C(=O)NCCCCNC(=O)/C(C#N)=C/c2cc(OC)c(O)c([N+](=O)[O-])c2)cc([N+](=O)[O-])c1O` is greater than 80 µM; for `N#C/C(=C\c1ccc(O)c(O)c1)C(=O)NCc1cccc(CNC(=O)/C(C#N)=C/c2ccc(O)c(O)c2)c1` it is 6 µM.
Consider `COc1cc(/C=C(\C#N)C(=O)NCCCCNC(=O)/C(C#N)=C/c2cc(Br)c(O)c(OC)c2)cc(Br)c1O`, for which the IC50 was 3 µM.
The compound `N#C/C(=C\c1cc(O)c(O)c(Br)c1)C(=O)NCCCNC(=O)/C(C#N)=C/c1cc(O)c(O)c(Br)c1` yielded an IC50 of 7.3 µM.
The compound `N#C/C(=C\c1ccc(O)c(O)c1)C(=O)NCCNC(=O)/C(C#N)=C/c1ccc(O)c(O)c1` showed an IC50 of 10 µM.
The figure for `N#C/C(=C\c1ccc(O)c(O)c1)C(=O)NC1CCCCC1NC(=O)/C(C#N)=C/c1ccc(O)c(O)c1` (centres undefined) is 4 µM.
The compound `N#C/C(=C\c1ccc(O)c(O)c1)C(=O)NCCCCCCCCCCNC(=O)/C(C#N)=C/c1ccc(O)c(O)c1` returned an IC50 of 25 µM.
Under `N#C/C(=C\c1cc(O)c(O)c(O)c1)C(=O)NCCCCNC(=O)/C(C#N)=C/c1cc(O)c(O)c(O)c1` stands 5 µM.
